# Measured values: EP4810052A2, “HCRHR2 SELECTIVE POLYPEPTIDES” (Gubra A/S, priority 2023, dated 2026)
# Like-named read-outs stand apart in the source and are kept apart here. Marks after values point to notes of the source that are not given here. Starred links: 1 amine or outer side, 2 acyl side, 3 side chain; linkers in the order of their positions; H or OH if unused. Non-standard residues stand in square brackets, D forms with d. Residues, ends and D or L forms follow the SMILES beside them. Groups on a side chain read outwards from the residue. *: point of attachment. C20 diacid = O=C(O)CCCCCCCCCCCCCCCCCCC(=O)*; γGlu = O=C(O)[C@H](CCC(=O)[*:2])N[*:1]; NMeI = CC[C@H](C)[C@H](NC)C(=O)O; AEEA = NCCOCCOCC(=O)O
# Columns and labels:
# [1] = target: T1, hCRHR2 (Homo sapiens, UniProt Q13324); assay: HTRF cAMP assay, determination of hCRHR2 potency (peptide libraries 5 conc., purified peptides 11 conc.); type: cell-based
# T1 sequence (Q13324 1-411): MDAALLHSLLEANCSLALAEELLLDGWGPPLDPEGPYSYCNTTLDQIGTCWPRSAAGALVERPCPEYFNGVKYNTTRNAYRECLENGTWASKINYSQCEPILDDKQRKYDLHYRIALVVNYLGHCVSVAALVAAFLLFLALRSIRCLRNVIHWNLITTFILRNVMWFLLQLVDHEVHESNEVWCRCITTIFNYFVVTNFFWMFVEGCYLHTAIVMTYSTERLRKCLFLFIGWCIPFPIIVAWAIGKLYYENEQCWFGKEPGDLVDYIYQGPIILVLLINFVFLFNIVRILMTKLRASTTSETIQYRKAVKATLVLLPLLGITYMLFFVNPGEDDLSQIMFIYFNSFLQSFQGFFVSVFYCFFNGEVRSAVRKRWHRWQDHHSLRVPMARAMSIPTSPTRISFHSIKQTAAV
# Summary of the method: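 EC50 derived by variable-slope sigmoid regression of FRET-based cAMP data; cellular cAMP displaced d2-labelled tracer from cryptate anti-cAMP antibody. Stable human CRHR2 CHO-K1 suspension cells, revived from frozen stocks just before the run.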
# [2] = target: T2, hCRHR1 (Homo sapiens, UniProt P34998); assay: HTRF cAMP assay, determination of hCRHR1 potency (peptide libraries 5 conc., purified peptides 11 conc.); type: cell-based
# T2 sequence (P34998 24-415): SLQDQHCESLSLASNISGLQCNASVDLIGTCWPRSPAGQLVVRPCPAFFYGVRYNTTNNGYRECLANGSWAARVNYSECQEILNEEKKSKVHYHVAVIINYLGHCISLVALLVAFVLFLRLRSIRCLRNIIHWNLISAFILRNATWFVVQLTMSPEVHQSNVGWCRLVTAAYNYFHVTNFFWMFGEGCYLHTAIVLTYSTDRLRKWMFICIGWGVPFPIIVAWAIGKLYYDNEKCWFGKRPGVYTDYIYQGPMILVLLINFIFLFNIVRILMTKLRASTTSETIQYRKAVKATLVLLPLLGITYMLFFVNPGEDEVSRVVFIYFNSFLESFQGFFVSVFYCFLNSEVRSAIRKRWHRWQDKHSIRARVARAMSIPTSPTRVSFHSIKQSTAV
# Summary of the method: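 Cellular cAMP was read by time-resolved FRET between d2-labelled cAMP and cryptate anti-cAMP antibody. The cells were freshly thawed suspension CHO-K1 cells stably expressing human CRHR1.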
# [3] = PK in rats; type: in vivo; design: T½ / MRT: unit not given here; settings: for half-life: read-out: T½ (converted)
# Method: Lean male Sprague Dawley rats (RJHan:SD) were obtained from JanVier (JanVier Labs, France) at 7 weeks of age. The animals were pair housed until randomization under a 12/12 h dark-light cycle, light off at 3 PM. Room temperature was controlled to 22°C ± 1°C, with 60 % ± 20% humidity.
# Animals had ad libitum access to regular rodent chow (Altromin 1324, Brogaarden, Denmark) and tap water.
# After 2 weeks of acclimatization, the animals were single housed and randomized into treatment groups (n = 3 per group) based on body weight on study day -3. On study day 1, animals were dosed 50 nmol/kg IV and SC in combination of two peptides. Plasma samples were collected for PK analysis at times 0.17, 1, 3, 6, 24, 30, 48, 72 and 96 hours post dosing. Plasma samples were analyzed using LC-MSMS and PK parameters were estimated by Non-Compartmental Analysis (NCA).
# [4] = Effect on acute food intake in mice; type: in vivo; settings: single subcutaneous dose
# Method: Male NMRI mice were obtained from JanVier (JanVier Labs, France) at 5 weeks of age. The animals were group-housed 4 mice pr. cage under a 12/12 h dark-light cycle, light off at 1 PM. Room temperature was controlled to 22°C ± 1°C, with 60 % ± 20% humidity. Animals had ad libitum access to regular rodent chow (Altromin 1324, Brogaarden, Denmark) and tap water.
# Animals were transferred 5-7 days before the start of the study to a real-time food intake monitoring system, HM-2 system (MBRose, Denmark) to allow acclimatization to experimental conditions. As the animals were uniquely identified with microchips, each individual animal was identified by its microchip upon entry and exit from the food channel. Randomization of the mice for each study group (n=7-8) was based on body weight measured the day before the start of the study. A vehicle-treated group was included in each experiment. Six hours before the start of the dark phase, animals were fasted. One hour before the dark phase, animals were dosed once subcutaneously with test peptide. Food intake was reported hourly for a period of 72 hours. The percentage of food intake reduction was normalized to average food intake from the vehicle group. Statistical significance was evaluated using One-way analysis of variance with Dunnett's multiple comparison test. P < 0.05 was considered statistically significant.
# Selected compounds were tested according to the general procedure on acute food intake in mice to determine the effect of a single subcutaneous dose on food intake in mice over 3 days.
# [5] = male, Sprague Dawley (RJHan:SD), in vivo, iv, Rat, 50 nmol/kg i.v.
# [6] = male, Sprague Dawley (RJHan:SD), in vivo, sc, Rat, 50 nmol/kg s.c.
smiles,measurement,setting,value
CC[C@H](C)[C@H](NC)C(=O)N[C@H](C(=O)N[C@@H](CC(C)C)C(=O)N[C@@H](CO)C(=O)N[C@@H](CC(C)C)C(=O)N[C@@H](CC(=O)O)C(=O)N[C@H](C(=O)N1CCC[C@H]1C(=O)N[C@H](C(=O)NCC(=O)N[C@@H](CC(C)C)C(=O)N[C@@H](CC(C)C)C(=O)N[C@@H](CCC(N)=O)C(=O)N[C@H](C(=O)N[C@@H](CC(C)C)C(=O)N[C@@H](CC(C)C)C(=O)N[C@@H](CCC(=O)O)C(=O)N[C@@H](CCC(N)=O)C(=O)N[C@@H](C)C(=O)N[C@@H](CCCNC(=N)N)C(=O)N[C@@H](C)C(=O)N[C@@H](CCCNC(=N)N)C(=O)N[C@@H](C)C(=O)N[C@@H](C)C(=O)N[C@@H](CCCNC(=N)N)C(=O)N[C@@H](CCC(=O)O)C(=O)N[C@@H](CCC(N)=O)C(=O)N[C@@H](C)C(=O)N[C@H](C(=O)N[C@@H](CCCCNC(=O)COCCOCCNC(=O)COCCOCCNC(=O)CC[C@H](NC(=O)CC[C@H](NC(=O)CCCCCCCCCCCCCCCCCCC(=O)O)C(=O)O)C(=O)O)C(=O)N[C@@H](CC(N)=O)C(=O)N[C@@H](C)C(=O)N[C@@H](CCC(=O)O)C(=O)N[C@H](C(=O)N[C@@H](CC(C)C)C(=O)N[C@@H](C)C(=O)N[C@@H](CCC(=O)O)C(=O)N[C@H](C(N)=O)C(C)C)[C@@H](C)CC)[C@@H](C)O)[C@@H](C)CC)[C@@H](C)CC)C(C)C)C(C)C [SEQ ID NO: 6] (H-[NMeI]VLSLDVPIGLLQILLEQARARAAREQATK([AEEA-AEEA-γGlu-γGlu-C20 diacid])NAEILAEV-NH2),Selectivity ratio (hCRHR1/ hCRHR2),[1]; hCRHR1-EC50/hCRHR2-EC50,>1852
same,EC50,"[1]; purified peptides, CHO-K1 cells stably expressing hCRHR2, cAMP HTRF, read-out: hCRHR2 EC50",2.7 nM
same,EC50,"[1]; stable cell system, Table 10, read-out: Stable EC50 (nM) hCRHR 2a",3 nM
same,EC50,"[2]; purified peptides, CHO-K1 cells stably expressing hCRHR1, cAMP HTRF, read-out: hCRHR1 EC50",> 5000 nM
same,EC50,"[2]; stable cell system, Table 10, read-out: Stable EC50 (nM) hCRHR 1",> 5000 nM
same,MRT,[3]; Rat,7.4
same,T½,[3]; Rat,6.1
same,clearance,[3]; [5],0.15 mL/min/kg
same,half-life,[3]; [5],366 min
same,Cmax,[3]; [6],70 nM
same,Tmax,[3]; [6],24 h
same,half-life,[3]; [6],504 min
same,bioavailability,"[3]; male, Sprague Dawley, rat, in vivo, sc",35%
same,"% FI compared to vehicle, 24 h post-dosing",[4]; 30 nmol/kg,51.61*** %
same,"% FI compared to vehicle, 24 h post-dosing",[4]; 100 nmol/kg,25.76*** %
same,"% FI compared to vehicle, 24 h post-dosing",[4]; 300 nmol/kg,12.69*** %
same,Solubility pH 6.5 (mg/ml),pH 6.5,21.1 mg/ml
same,Solubility pH 7.0 (mg/mL),pH 7,20.0 mg/mL
same,Solubility pH 7.5 (mg/mL),pH 7.5,18.7 mg/mL
same,Solubility pH 7.5 + phenol (mg/mL),pH 7.5,18.1 mg/mL
